Measured values: US20070197557A1, “Fungicidal mixtures” (Basf Aktiengesellschaft, priority 2004, published 2007)

System: Erysiphe [syn. Blumeria] graminis forma specialis. tritici
Assay: activity against mildew of wheat, 5 day protective application
Type: in vivo
Settings: evaluated 7 days after inoculation, Abbot's formula
Protocol: 1% by weight of the emulsifier Uniperol® EL (wetting agent having emulsifying and dispersant action based on ethoxylated alkylphenols) was added to this solution, and the mixture was diluted with water to the desired concentration.
Use example—activity against mildew of wheat caused by Erysiphe [syn. Blumeria] graminis forma specialis. tritici, 5 day protective application
Theor emulsion had been prepared as described above. […] The test plants were then placed in a greenhouse at temperatures between 20 and 24° C. and at 60 to 90% relative atmospheric humidity. After 7 days, the extent of mildew development was determined visually in % infection of the total leaf area
The visually determined percentages of infected leaf areas were converted into efficacies in % of the untreated control:
The efficacy (E) is calculated as follows using Abbot's formula: E=(1-α/β)·100 • α corresponds to the fungal infection of the treated plants in % and • β corresponds to the fungal infection of the untreated (control) plants in %
An efficacy of 0 means that the infection level of the treated plants corresponds to that of the untreated control plants; an efficacy of 100 means that the treated plants were not infected.

[1] = 12.5 ppm active compound in the spray liquor

| Compound | Efficacy in % of the untreated control [1] | Efficacy in % of the untreated control (50 ppm active compound in the spray liquor) | Efficacy in % of the untreated control (25 ppm active compound in the spray liquor) |
| --- | --- | --- | --- |
| CC1CCN(c2c(-c3c(F)cc(F)cc3F)c(Cl)nc3ncnn23)CC1 [I, 5-chloro-7-(4-methylpiperidin-1-yl)-6-(2,4,6-trifluorophenyl)-[1,2,4]triazolo[1,5-a]pyrimidine] | 9% | 35% | – |
| CCCOc1nc2ccc(I)cc2c(=O)n1CCC [II.1-1, proquinazid] | 67% | – | 80% |
